From patent US20240299535A1, “TARGETED GLYCOSAMINOGLYCAN-PARTICLES AND METHODS OF USE” (priority 2021, published 2024) come the findings set out here.

For data set [1], the system named is RAW 264.7 macrophages. Nature of the data set: HEP structural analog competition of HEP-AuNP uptake (ICP-MS). The data set is classed as cell-based, murine. To be noted: pre-incubation with competitor. The source says: To quantify the nanoparticles' cellular interactions, we performed quantitative ICP-MS and corroborated the results qualitatively with light microscopy. […] No significant competition with the remaining structural analogs was observed.

Data set [2] deals with RAW 264.7 macrophages. Nature of the data set: Endocytosis inhibition study of HEP-AuNP uptake (ICP-MS). The class given is cell-based, murine. To be noted: for inhibitory effects for nanoparticle uptake: dose escalation, 0-31.4 μM chlorpromazine, 0-3.9 μM cytochalasin D; for nanoparticle cellular uptake inhibition efficiencies / effect on nanoparticle cellular uptake: inhibitor screen, 1 h pre-incubation, nanoparticles 1.5 hours. The method, then:
Panel (A) is a schematic representation of the uptake pathway study: (i) non-specific endocytosis inhibition to determine whether nanoparticle cellular uptake is energy-dependent. (ii-iv) Specific endocytosis inhibitors for studying (ii) caveolae-mediated endocytosis, (iii) clathrin-mediated endocytosis, and (iv) macropinocytosis. Panels (B) to (D) are ICP-MS quantification of the nanoparticle cellular uptake in RAW 264.7 macrophages at 4° C.—Panel (B), in the presence of ATPase inhibitor sodium azide—Panel (C), or chemical endocytosis inhibitors of caveolae-mediated endocytosis, clathrin-mediated endocytosis, and […]—Panel (D). AuNPs modified with 13-kDa HEP (at 0.2 nM) were used as control without inhibitors at 37° C. Bars indicate mean±SD (n=3-4); statistical tests used one-way ANOVA (p<0.0001 (****); p<0.0021 (**); p<0.0332 (*).
We hypothesized that these nanoparticles might enter cells via endocytosis by one or more energy-dependent uptake pathways. Thus, we carried out a systematic endocytosis inhibition study to discern which uptake pathways were involved.
First, we pre-incubated the innate immune cells for 1 h with the endocytosis inhibitors. Then we added the nanoparticles and incubated them with the cells for 1.5 hours. We imaged the cells with a light microscope and quantified the nanoparticle uptake by ICP-MS (FIG. 2, Panel (D)).
(§1) We performed systematic dose escalation studies to assess the dose-response of the inhibitory effect and the cell toxicity of these two agents. Based on the previous dose screening experiments and published cell viability data the dose ranges were 0-31.4 μM and 0-3.9 μM for chlorpromazine and cytochalasin D, respectively.

Data set [3] relates to DC 2.4 dendritic cells. Described as above. The data set is classed as cell-based, murine.
Description: To test whether the HEP-coated nanoparticles could enter cells through clathrin-mediated endocytosis and macropinocytosis and/or phagocytosis in another immune cell line, we conducted further inhibition experiments in DC 2.4 dendritic cells. […] Additionally, we co-incubated chlorpromazine and cytochalasin D inhibitors with cells to test if there was any additive endocytosis inhibitory effect.
For a further data set, the system named is RAW264.7 macrophages. Nature of the data set: Cell viability assays with endocytosis inhibitors. To be noted: 0-31.4 μM chlorpromazine, 0-3.9 μM cytochalasin D. The method, then: as §1
Another data set has as its system cell uptake of HEP-AuNPs. Nature of the data set: CS A competition as a function of time and concentration (ICP-MS). The data set is classed as cell-based. The text has this: We further assessed the competition effect of CS A as a function of time and concentration at non-cytotoxic levels. […] These competition experiments with GAG structural analog polymers imply that CS A can substitute to some degree as a ligand for HEP for the internalization receptor(s).

Data set [4] has as its system RAW 264.7 macrophages.
Excerpt: We next investigated whether the CS A inhibitory effect of HEP-AuNP uptake was due to a potential toxicity effect of the CS A preparation, which was extracted from a mammalian source.
The test system of data set [5] is DC 2.4 dendritic cells. As to the kind of experiment: CS A competition of HEP-AuNP uptake (ICP-MS). The data set is classed as cell-based, murine. To be noted: 1 hour pre-incubation, nanoparticles 2.5 hour; non-cytotoxic doses. The source says:
Next, we expanded the structural analog competition study to DC 2.4 dendritic cells. […] We quantified the competition efficiency by ICP-MS and corroborated the results with light microscopy.

For Chondroitin Sulfate C [CS C], in the data set with RAW 264.7 macrophages [1], the “reduction of cellular uptake of HEP-AuNPs vs no-competitor group” value (“reduction … vs no-competitor group” below) is given as “approximately 15%”.

In the case of `CN(C)CCCN1c2ccccc2Sc2ccc(Cl)cc21` [chlorpromazine], in the data set on RAW 264.7 macrophages [2], the “inhibitory effects for nanoparticle uptake” value is listed as “approximately 70%” and the “nanoparticle cellular uptake inhibition efficiencies” value was “approximately 73%”. For the same molecule, the “reduction of HEP-AuNP uptake” value with DC 2.4 dendritic cells [3] is on record as “approximately 77%”. Also, in the data set on RAW264.7 macrophages, the “cytotoxicity of inhibitor doses” value was “not cytotoxic”. The like results for `C=C1[C@@H](C)[C@H]2[C@H](Cc3ccccc3)NC(=O)[C@]23[C@H](OC(C)=O)/C=C/[C@@](C)(O)C(=O)[C@@H](C)C/C=C/[C@H]3[C@@H]1O` [cytochalasin D] were, in that order, “approximately 51%”, around 24%, “approximately 77%” and “not cytotoxic”.

In the case of `O=C(N/N=C/c1ccc(O)c(O)c1)c1cc2ccccc2cc1O` [Dynasore], the “effect on nanoparticle cellular uptake” value with RAW 264.7 macrophages [2] is “did not reduce the nanoparticle cellular uptake”. Turning to `CCCCC[C@@H](O)[C@H]1C(=O)O[C@H](C)[C@@H](O)/C=C/C=C/C=C/C=C/C=C(\C)[C@@H](O)C[C@H](O)C[C@H](O)C[C@H](O)C[C@H](O)C[C@H](O)C[C@@H]1O` [Filipin], in the data set on RAW 264.7 macrophages [2], the “effect on nanoparticle cellular uptake” value is “did not reduce the nanoparticle cellular uptake”.

For the molecule `[N-]=[N+]=[N-]` [sodium azide], the “reduction of cellular uptake of HEP-AuNPs” value in the data set on RAW 264.7 macrophages [2] (0.1% w/v sodium azide) is given as “approximately 22%”. For the molecule heparin, the “reduction … vs no-competitor group” value with RAW 264.7 macrophages [1] is on record as “approximately 18%”. For the molecule `CCN(c1nc(N)c(C(=O)N=C(N)N)nc1Cl)C(C)C` [EIPA, 5-(N-ethyl-N-isopropyl) amiloride], the “effect on nanoparticle cellular uptake” value in the data set on RAW 264.7 macrophages [2] is “did not reduce the nanoparticle cellular uptake”. For `CCN1C(=O)C=CC1=O` [N-ethylmaleimide], the “effect on nanoparticle cellular uptake” value in the data set on RAW 264.7 macrophages [2] is given as “did not reduce the nanoparticle cellular uptake”. Take `CCN(CC)CCCC(C)Nc1ccnc2cc(Cl)ccc12` (centres unmarked) [chloroquine]: in the data set with RAW 264.7 macrophages [2], the “nanoparticle cellular uptake inhibition efficiencies” value is given as around 12%. As for `CN(C)CCCN1c2ccccc2CCc2ccccc21` [imipramine], the “nanoparticle cellular uptake inhibition efficiencies” value in the data set with RAW 264.7 macrophages [2] is given as around 8%.

Chondroitin Sulfate A [CS A]: the “IC50 (inhibitor dose-response of HEP-AuNP uptake)” value in the data set on cell uptake of HEP-AuNPs is 500 µg/mL. For the same molecule, the “inhibitory effect over time” value with cell uptake of HEP-AuNPs (1 mg/mL) is given as “persisted throughout time”. The “suppression of cellular uptake of HEP-AuNPs” value with cell uptake of HEP-AuNPs (2 mg/mL) is listed as “up to 9 fold”. For the same molecule, the “effect on cell viability” value with RAW 264.7 macrophages [4] was “did not affect cell viability”. For the same molecule, the “nanoparticle uptake vs no-competitor group” value with DC 2.4 dendritic cells [5] was “lower nanoparticle uptake”. Further, in the data set on RAW 264.7 macrophages [1], the “reduction … vs no-competitor group” value was around 43%.
